Laboratory results reported in patent publication US10375956B2, “Herbicidally active 2-(substituted-phenyl)-cyclopentane-1,3-dione compounds and derivatives thereof” (Syngenta Limited, priority 2013, dated 2019).
Where two headings read alike, the source gives them in different places.

Experiments:
Assay type in all cases: in vivo
[1] = system: Alopecurus myosuroides (ALOMY); assay: Test 1 glasshouse assay, post-emergence herbicidal activity; settings: 312 h, after 13 days, read-out: Percentage phytotoxicity ALOMY
Method: (§1) Seeds of a variety of test species are sown in standard soil in pots. After cultivation for one day (pre-emergence) or after 8 days cultivation (post-emergence) under controlled conditions in a glasshouse (at 24/16° C., day/night; 14 hours light; 65% humidity), the plants are sprayed with an aqueous spray solution derived from the formulation of the “technical” (i.e. unformulated) active ingredient in acetone/water (50:50) solution containing 0.5% Tween 20 (polyoxyethylene sorbitan monolaurate, CAS Registry Number 9005-64-5). The test plants are then grown on under controlled conditions in a glasshouse (at 24/16° C., day/night; 14 hours light; 65% humidity) and watered twice daily. After 13 days for pre- or post-emergence, the test is evaluated visually, and an assessed percentage phytotoxicity score is given for each herbicidal application on each plant species (where 100%=total damage to plant; 0%=no damage to plant).
(§2) Test plants include the following: Abutilon theophrasti (ABUTH) and Amaranthus retroflexus (AMARE); these are all dicotyledonous (broadleaved) weeds. Setaria faberi (SETFA), Alopecurus myosuroides (ALOMY), and Echinochloa crus-galli (ECHCG); these are all grassy monocotyledonous weeds. Also: Zea mays (ZEAMX, corn/maize), which can be a grassy weed (“volunteer” corn) in some circumstances.
(§3) Lolium perenne (LOLPE), Alopecurus myosuroides (ALOMY), Echinochloa crus-galli (ECHCG), and Avena fatua (AVEFA); these are all grassy monocotyledonous weeds. Cool climate crop plant: Triticum aestivum (TRZAW, winter wheat).

[2] = system: Echinochloa crus-galli (ECHCG); assay: as above; settings: 312 h, after 13 days, read-out: Percentage phytotoxicity ECHCG
Method: as §1, §2, §3

Lolium perenne (LOLPE) = assay: Test 2 glasshouse assay (IF50 formulation, X-77), pre-emergence herbicidal activity; settings: 480 h, 250 g/ha, 20DAA, read-out: Percentage phytotoxicity LOLPE
Method: (§4) Seeds of a variety of monocotyledonous and dicotyledonous test plants are sown in standard soil in pots. The plants are cultivated for one day (for pre-emergence) or for about 12 days (for post-emergence) under controlled conditions in a glasshouse (warm climate species at 24/18° C., cool climate species at 20/16° C., both at day/night; 16 hours light; 65% humidity).
(§5) An “instant formulation”, known as the “IF50”, containing 50 g/liter (i.e. 5% w/v) of the “technical” (i.e. unformulated) active ingredient is prepared by dissolving the active ingredient in a mixture of organic solvents and emulsifier, details of which are provided in the Table below. This IF50 is then mixed with a small, variable amount of acetone to aid dissolution, before addition of a 0.2% v/v aqueous solution of the adjuvant X-77 (which is a mixture of alkyl aryl polyoxyethylene glycols and free fatty acids in isopropanol, CAS Registry number 11097-66-8), as the aqueous diluent, to form an aqueous spray solution which contains a predetermined concentration of the active ingredient (which varies depending on the application rate of the active ingredient to the plants) and 0.2% v/v of the adjuvant X-77. This aqueous spray solution is then sprayed onto the plants, after one day's cultivation (for pre-emergence), or after about 12 days' cultivation (range=10-13 days) (for post-emergence).
(§6) The test plants are then grown on, in a glasshouse (greenhouse) under controlled conditions (warm climate species at 24/18° C., cool climate species at 20/16° C., both at day/night; 16 hours light; 65% humidity) and are watered twice daily. 15 days after application of the test herbicide (15DAA) (for post-emergence), and 20 days after application of the test herbicide (20DAA) (for pre-emergence), the test plants are evaluated visually, and an assessed percentage phytotoxicity score is given for each herbicidal application on each plant species (with 100%=total damage to plant; 0%=no damage to plant).
Cool climate (“cool season”) grassy monocotyledonous weeds: Alopecurus myosuroides (ALOMY), Avena fatua (AVEFA), Lolium perenne (LOLPE).

[3] = system: Digitaria sanguinalis (DIGSA); assay: as above; settings: 480 h, 250 g/ha, 20DAA, read-out: Percentage phytotoxicity DIGSA
Method: as §4, §5, §6
(§7) Warm climate (“warm season”) grassy monocotyledonous weeds: Setaria faberi (SETFA), Panicum miliaceum (PANMI), Sorghum vulgare Pers. (SORVU) (or Sorghum bicolor (L) Moench ssp. Bicolor), Digitaria sanguinalis (DIGSA), Echinochloa crus-galli (ECHCG), and Brachiaria plantaginea (BRAPL).

[4] = system: Echinochloa crus-galli (ECHCG); assay: as above; settings: 480 h, 250 g/ha, 20DAA, read-out: Percentage phytotoxicity ECHCG
Method: as §4, §5, §6, §7

[5] = system: Panicum miliaceum (PANMI); assay: as above; settings: 480 h, 250 g/ha, 20DAA, read-out: Percentage phytotoxicity PANMI
Method: as §4, §5, §6, §7

Setaria faberi (SETFA) [6] = assay: as above; settings: 480 h, 250 g/ha, 20DAA, read-out: Percentage phytotoxicity SETFA
Method: as §4, §5, §6, §7

[7] = system: Sorghum vulgare Pers. (SORVU); assay: as above; settings: Sorghum bicolor, 480 h, 250 g/ha, 20DAA, read-out: Percentage phytotoxicity SORVU
Method: as §4, §5, §6, §7

[8] = system: Digitaria sanguinalis (DIGSA); assay: Test 2 glasshouse assay (IF50 formulation, X-77), post-emergence herbicidal activity; settings: 360 h, 15 DAA, visual score, read-out: Post-emergence herbicidal activity (percentage phytotoxicity) DIGSA; for pest or weed control at 125 g/ha: application rate 125 g/ha; for pest or weed control at 250 g/ha: application rate 250 g/ha; for pest or weed control at 30 g/ha: application rate 30 g/ha
Method: as §4, §5, §6, §7

Setaria faberi (SETFA) [9] = assay: as above; settings: 360 h, 15 DAA, visual score, read-out: Post-emergence herbicidal activity (percentage phytotoxicity) SETFA; for pest or weed control at 125 g/ha: application rate 125 g/ha; for pest or weed control at 250 g/ha: application rate 250 g/ha; for pest or weed control at 30 g/ha: application rate 30 g/ha
Method: as §4, §5, §6, §7

[10] = system: Sorghum vulgare Pers. (SORVU); assay: as above; settings: Sorghum bicolor, 360 h, 15 DAA, visual score, read-out: Post-emergence herbicidal activity (percentage phytotoxicity) SORVU; for pest or weed control at 125 g/ha: application rate 125 g/ha; for pest or weed control at 250 g/ha: application rate 250 g/ha; for pest or weed control at 30 g/ha: application rate 30 g/ha
Method: as §4, §5, §6, §7

[11] = post-emergence (Example 1B Table 1)
[12] = post-emergence (Example 1B Table 2)

Row | SMILES | pest or weed control at 30 g/ha [1, 11] [%] | pest or weed control at 250 g/ha [1, 11] [%] | pest or weed control at 250 g/ha [1, 12] [%] | pest or weed control at 30 g/ha [2, 11] [%] | pest or weed control at 250 g/ha [2, 11] [%] | pest or weed control at 250 g/ha [2, 12] [%] | pest or weed control at 250 g/ha (Lolium perenne (LOLPE)) [%] | pest or weed control at 250 g/ha [3] [%] | pest or weed control at 250 g/ha [4] [%] | pest or weed control at 250 g/ha [5] [%] | pest or weed control at 250 g/ha (Setaria faberi (SETFA) [6]) [%] | pest or weed control at 250 g/ha [7] [%] | pest or weed control at 250 g/ha [8] [%] | pest or weed control at 250 g/ha (Setaria faberi (SETFA) [9]) [%] | pest or weed control at 250 g/ha [10] [%] | pest or weed control at 62.5 g/ha [1, 12] [%] | pest or weed control at 62.5 g/ha [2, 12] [%] | further results
1 | C#CCC1CC(=O)C(c2c(F)cc(-c3ccc(Cl)cc3)cc2Cl)C1=O (centres unmarked) [Compound A6, 2-[2-chloro-4-(4-chlorophenyl)-6-fluorophenyl]-4-prop-2-ynylcyclopentane-1,3-dione] | 80 | 100 | 100 | 100 | 100 | 100 | 30 | 20 | 50 | 0 | 0 | 40 | 100 | 100 | 100 |  |  | pest or weed control at 125 g/ha [8]: 100%; pest or weed control at 125 g/ha (Setaria faberi (SETFA) [9]): 100%; pest or weed control at 125 g/ha [10]: 100%
2 | C#CCC1CC(=O)C(c2c(F)cc(-c3ccc(Cl)cn3)cc2Cl)C1=O (centres unmarked) [Compound A8] | 100 | 100 | 100 | 100 | 100 | 100 | 80 | 80 | 60 | 90 | 70 | 80 | 100 | 100 | 100 | 80 | 100 | pest or weed control at 30 g/ha [8]: 90%; pest or weed control at 30 g/ha (Setaria faberi (SETFA) [9]): 90%; pest or weed control at 30 g/ha [10]: 100%
3 | C#CCC1CC(=O)C(c2c(Cl)cc(-c3ccc(Cl)cn3)cc2OC)C1=O (centres unmarked) [Compound A10] | 90 | 100 | 100 | 100 | 100 | 100 | 70 | 100 | 100 | 100 | 100 | 100 | 100 | 100 | 100 | 100 | 100 | pest or weed control at 30 g/ha [8]: 100%; pest or weed control at 30 g/ha (Setaria faberi (SETFA) [9]): 100%; pest or weed control at 30 g/ha [10]: 100%
4 | C#CCC1CC(=O)C(c2cc(-c3ccc(Cl)cc3Cl)ccc2C)C1=O (centres unmarked) [Compound A15] |  | 10 |  |  | 70 |  | 0 | 50 | 10 | 20 | 20 | 30 | 30 | 30 | 40 |  |  | 
5 | C#CCC1CC(=O)C(c2cc(-c3ncc(Cl)cc3F)ccc2C)C1=O (centres unmarked) [Compound A18] | 10 | 70 |  | 60 | 80 |  |  |  |  |  |  |  | 50 | 70 | 70 |  |  | 
6 | C#CCC1CC(=O)C(c2cc(-c3ncc(Cl)cn3)ccc2C)C1=O (centres unmarked) [Compound A19] | 10 | 60 |  | 70 | 90 |  |  |  |  |  |  |  | 70 | 60 | 70 |  |  | 
7 | C#CCC1CC(=O)C(c2c(F)cc(-c3ccc(F)cc3)cc2OC)C1=O (centres unmarked) [Compound A20, 2-[2-fluoro-4-(4-fluorophenyl)-6-methoxyphenyl]-4-prop-2-ynylcyclopentane-1,3-dione] | 50 | 100 |  | 80 | 100 |  |  |  |  |  |  |  |  |  |  |  |  | 
8 | C#CCC1CC(=O)C(c2c(F)cc(-c3ccc(F)cc3F)cc2OC)C1=O (centres unmarked) [Compound A21] | 40 | 70 |  | 90 | 100 |  |  |  |  |  |  |  |  |  |  |  |  | 
9 | C#CCC1CC(=O)C(c2c(C)cc(C)cc2C)C1=O (centres unmarked) [Compound A23] |  |  | 100 |  |  | 100 | 100 | 90 | 100 | 100 | 90 | 70 |  |  |  | 90 | 100 | pest or weed control at 125 g/ha [8]: 100%; pest or weed control at 125 g/ha (Setaria faberi (SETFA) [9]): 80%; pest or weed control at 125 g/ha [10]: 90%
